Experimental data published in patent US20110230476A1, “PI3 KINASE INHIBITORS AND USES THEREOF” (AVILA THERAPEUTICS, INC., priority 2009, published 2011).
“Also recorded” adds a separate entry of the source.

How the values were obtained:
PI3Kα = PI3Kα (Homo sapiens, UniProt P42336); experiment: Trypsin digest and MS-MS analysis of compound-treated PI3Kα; assay type: binding; parameters: purchased Millipore 14-602; conditions: in-gel trypsin digest
Method: (§1) The PI3Kα protein band was then excised and subjected to an in-gel trypsin digest by reducing the protein with DTT, alkylating the thiols with iodoacetamide, and then incubating the protein gel band with trypsin overnight in a 37° C. water bath. The digest was then stopped by addition of trifluoroacetic acid, and peptides were removed from gel band by sonicating with increasing amounts of acetonitrile (0%, 30%, & 60%). Peptides were then purified using C18 ziptips, spotted on the MALDI target plate with α-cyano-4-hydroxycinnamic acid as the desorption matrix (10 mg/ml in 0.1% TFA:Acetonitrile 50:50), and analyzed in reflectron mode.
as §1, with “trifluoro acetic” for “trifluoroacetic”

PI3Kα (p110α/p85α) = target: T1, PI3Kα (p110α/p85α) (Homo sapiens, UniProt P42336); experiment: HTRF assay, potency against active PI3Kα; assay type: biochemical; conditions: HTRF; [ATP]=50 μM, [di-C8-PIP2]=10 μM; 30 min pre-incubation; read-out: PI3Kα Inhibition
T1 construct: purchased BPS Bioscience (San Diego, Calif.) or Millipore (Billerica, Mass.)
Method in brief: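 IC50 came from a variable-slope fit of % inhibition, calculated from the HTRF emission ratio relative to wells with and without enzyme. Reactions with the active enzyme complex ran 30-60 minutes at 25 °C after ATP addition before stop and detection reagents.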

PI3Kγ (p120γ) = target: T2, PI3Kγ (p120γ) (Homo sapiens, UniProt P48736); experiment: HTRF assay, potency against active PI3Kγ; assay type: biochemical; conditions: [ATP]=50 μM, [di-C8-PIP2]=10 μM, 30 min pre-incubation, read-out: PI3Kγ Inhibition
T2 construct: purchased BPS Bioscience (San Diego, Calif.) or Millipore (Billerica, Mass.)
Method in brief: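 End-point competition HTRF: enzyme (p110β/p85α 0.75 nM; p120γ 2-2.5 nM) with 10 μM di-C8-PIP2 pre-incubated 30 min at 25° C with compound, then 50 μM ATP added for 30-60 min at 25° C. Stopped, detected after 1 and 18 h; IC50 from variable-slope fit.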

PI3K = PI3K HCT116 cellular assay (Western blot); assay type: cell-based; conditions: Homo sapiens, HCT-116, HCT116 colon cancer cells, 1 hour incubation, read-out: PI3K Inhibition
Method: PI3K HCT116 Cellular Assay
Selected compounds were assayed in HCT116 colon cancer cells. […] Cells were then washed with PBS, lysed and the protein lysates were then recovered and analyzed by Western blot.

HCT116 cells = experiment: HCT-116 cell proliferation assay; assay type: cell-based; conditions: Homo sapiens, 72 hours, Cell Titer Glo
Method: HCT-116 Cell Proliferation Assay
For the HCT116 Proliferation Assay, 3000 cells per well were plated in Growth Media (DMEM, 10% FBS, 1% 1-glutamine, 1% penicillin/streptomycin) in 96 well plates. The following day, compounds were added to duplicate wells at concentrations of 10 uM and 3-fold dilutions down to 40 nM. The plates were returned to the incubator for 72 hours and then the assays were developed using Cell Titer Glo (Promega, Madison, Wis.) according to manufacturer's instructions.

PI3Kα, sequence (P42336 whole entry): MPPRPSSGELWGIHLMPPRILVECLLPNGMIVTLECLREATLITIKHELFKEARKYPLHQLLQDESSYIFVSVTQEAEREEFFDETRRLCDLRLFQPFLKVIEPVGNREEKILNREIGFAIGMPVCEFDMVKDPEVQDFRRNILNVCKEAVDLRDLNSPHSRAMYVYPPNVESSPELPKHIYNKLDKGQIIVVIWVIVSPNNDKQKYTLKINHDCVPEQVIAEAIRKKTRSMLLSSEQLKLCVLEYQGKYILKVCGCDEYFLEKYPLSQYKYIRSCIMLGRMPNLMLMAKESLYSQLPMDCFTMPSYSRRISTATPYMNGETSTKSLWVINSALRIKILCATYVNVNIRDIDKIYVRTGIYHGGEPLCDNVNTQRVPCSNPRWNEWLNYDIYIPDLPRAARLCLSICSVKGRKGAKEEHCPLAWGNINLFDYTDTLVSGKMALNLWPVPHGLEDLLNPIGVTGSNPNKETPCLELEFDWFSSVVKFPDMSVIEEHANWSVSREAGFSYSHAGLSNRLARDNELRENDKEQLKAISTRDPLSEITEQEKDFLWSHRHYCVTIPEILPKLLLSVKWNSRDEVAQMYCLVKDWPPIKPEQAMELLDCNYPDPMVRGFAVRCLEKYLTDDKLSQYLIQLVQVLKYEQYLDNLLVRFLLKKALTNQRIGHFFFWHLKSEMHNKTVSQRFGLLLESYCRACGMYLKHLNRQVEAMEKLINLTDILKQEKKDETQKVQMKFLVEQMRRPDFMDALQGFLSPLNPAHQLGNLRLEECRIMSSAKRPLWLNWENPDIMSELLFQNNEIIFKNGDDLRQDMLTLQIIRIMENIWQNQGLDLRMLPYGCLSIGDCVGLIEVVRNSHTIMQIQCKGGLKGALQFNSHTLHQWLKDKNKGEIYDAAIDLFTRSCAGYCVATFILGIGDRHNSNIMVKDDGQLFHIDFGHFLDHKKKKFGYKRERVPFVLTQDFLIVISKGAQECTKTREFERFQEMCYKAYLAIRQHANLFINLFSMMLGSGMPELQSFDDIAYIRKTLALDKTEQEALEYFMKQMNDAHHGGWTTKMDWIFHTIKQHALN
PI3Kα, sequence (P27986 whole entry partner): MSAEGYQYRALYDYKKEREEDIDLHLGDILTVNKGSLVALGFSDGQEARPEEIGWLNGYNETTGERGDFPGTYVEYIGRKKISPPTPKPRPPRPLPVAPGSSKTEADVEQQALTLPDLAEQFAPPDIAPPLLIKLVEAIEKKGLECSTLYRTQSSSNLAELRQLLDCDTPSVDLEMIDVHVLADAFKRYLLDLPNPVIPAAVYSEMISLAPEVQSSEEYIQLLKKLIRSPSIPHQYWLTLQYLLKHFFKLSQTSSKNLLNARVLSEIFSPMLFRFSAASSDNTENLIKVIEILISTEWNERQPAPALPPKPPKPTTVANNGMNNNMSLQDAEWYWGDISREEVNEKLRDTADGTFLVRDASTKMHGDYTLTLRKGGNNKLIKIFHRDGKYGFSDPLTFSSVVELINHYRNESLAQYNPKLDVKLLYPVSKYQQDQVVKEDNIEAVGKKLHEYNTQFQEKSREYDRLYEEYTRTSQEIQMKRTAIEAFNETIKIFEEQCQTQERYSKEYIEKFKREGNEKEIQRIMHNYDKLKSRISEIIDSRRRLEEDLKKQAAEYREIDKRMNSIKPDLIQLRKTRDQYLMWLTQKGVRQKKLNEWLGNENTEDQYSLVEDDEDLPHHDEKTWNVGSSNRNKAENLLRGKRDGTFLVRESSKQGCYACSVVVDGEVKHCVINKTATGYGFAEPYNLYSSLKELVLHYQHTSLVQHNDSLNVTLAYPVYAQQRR
T1 sequence (P42336 whole entry): as the sequence (P42336 whole entry) above
T1 sequence (P27986 whole entry partner): as the sequence (P27986 whole entry partner) above
T2 sequence (P48736 whole entry): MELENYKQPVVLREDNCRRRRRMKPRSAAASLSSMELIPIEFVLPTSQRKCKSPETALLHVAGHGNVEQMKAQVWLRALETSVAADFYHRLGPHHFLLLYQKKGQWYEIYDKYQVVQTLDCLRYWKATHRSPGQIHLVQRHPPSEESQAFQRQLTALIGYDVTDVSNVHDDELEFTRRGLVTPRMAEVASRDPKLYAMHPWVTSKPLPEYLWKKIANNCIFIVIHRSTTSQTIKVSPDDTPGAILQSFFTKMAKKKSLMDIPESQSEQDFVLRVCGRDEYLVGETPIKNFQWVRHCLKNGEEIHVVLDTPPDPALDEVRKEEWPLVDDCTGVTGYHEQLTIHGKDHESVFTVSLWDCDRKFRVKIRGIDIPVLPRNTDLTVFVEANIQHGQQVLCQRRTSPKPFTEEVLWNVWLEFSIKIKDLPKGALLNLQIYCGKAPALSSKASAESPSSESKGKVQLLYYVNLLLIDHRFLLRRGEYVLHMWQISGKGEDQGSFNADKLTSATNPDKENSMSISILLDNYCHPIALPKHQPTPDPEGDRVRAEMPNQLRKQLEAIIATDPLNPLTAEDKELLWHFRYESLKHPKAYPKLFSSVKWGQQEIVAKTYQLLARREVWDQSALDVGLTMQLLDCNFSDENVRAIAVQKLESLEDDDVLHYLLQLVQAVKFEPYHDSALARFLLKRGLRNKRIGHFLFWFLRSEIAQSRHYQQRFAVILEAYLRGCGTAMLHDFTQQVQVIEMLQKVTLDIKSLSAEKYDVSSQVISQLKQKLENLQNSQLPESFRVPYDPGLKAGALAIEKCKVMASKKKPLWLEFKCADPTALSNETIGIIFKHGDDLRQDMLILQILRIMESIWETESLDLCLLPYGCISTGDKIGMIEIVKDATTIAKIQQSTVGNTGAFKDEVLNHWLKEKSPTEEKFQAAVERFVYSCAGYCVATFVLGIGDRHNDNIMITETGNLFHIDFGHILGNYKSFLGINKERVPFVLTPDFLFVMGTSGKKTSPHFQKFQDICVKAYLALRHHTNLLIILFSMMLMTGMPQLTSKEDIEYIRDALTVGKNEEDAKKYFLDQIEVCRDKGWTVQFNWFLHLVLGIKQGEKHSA

Structure (SMILES) | site on PI3Kα that is covalently modified (PI3Kα) | IC50 (PI3Kα (p110α/p85α)) | IC50 (PI3Kγ (p120γ)) | EC50 (PI3K) | EC50 (HCT116 cells)
CC(C)=CC(=O)CCC(=O)N1CCN(Cc2cc3nc(-c4cccc5[nH]ncc45)nc(N4CCOCC4)c3s2)CC1 [II-a-3, 1-(4-((2-(1H-indazol-4-yl)-4-morpholinothieno[3,2-d]pyrimidin-6-yl)methyl)piperazin-1-yl)-6-methylhept-5-ene-1,4-dione] | Cys-862; also recorded: peptide ^853NSHTIMQIQCK^863 | – | – | – | –
C/C=C/C(=O)CCC(=O)N1CCN(Cc2cc3nc(-c4cccc5[nH]ncc45)nc(N4CCOCC4)c3s2)CC1 [II-a-36, (E)-1-(4-((2-(1H-indazol-4-yl)-4-morpholinothieno[3,2-d]pyrimidin-6-yl)methyl)piperazin-1-yl)hept-5-ene-1,4-dione] | – | < 10 nM | > 1000 nM | < 20 nM | 1000 to 10000 nM
